The target in one experiment is human A2A receptor (Homo sapiens (Human), UniProt P29274). In words: A2A competition binding assay using Scintillation Proximity technology. The settings on record: 0.25 μg of membranes from HEK293 cells expressing the human A2a receptor per well; 0.5 nM tritiated radioligand; Cheng-Prusoff. The protocol:
Binding affinities of compounds of the invention for the human A2A receptor were determined in a competition binding assay using Scintillation Proximity technology. Thus, 1^μg (^ denotes 1 μg of membrane/well), or preferably 0.25 μg of membranes from HEK293 cells expressing the human A2a receptor were incubated with a compound of the invention at concentrations ranging from 3000 nM to 0.15 nM in a reaction mixture containing also 0.5 nM of a tritiated form of 5-amino-7-[2-phenethyl]-2-(furan-2-yl)-7H-pyrazolo[4,3-e][1,2,4]triazolo[1,5-c]pyrimidine (the tritiated compound) and 25 μg of wheat germ agglutin-coated yttrium silicate SPA beads for one hour at room temperature with agitation. The beads were then allowed to settle to the bottom of the wells for 1 hr, after which the membrane-associated radioactivity was determined by scintillation counting in a TopCount microplate reader. Ki values were determined using the Cheng-Prusoff equation.
HEK293 cells expressing the human, rat, dog or monkey adenosine 2a receptor (Purchased from Perkin-Elmer # RBHA2AM400UA).
The Tritiated compound was prepared in-house by MRL Radiochemistry according to published methods.
Wheat germ agglutinin-coated yttrium silicate SPA beads (GE Healthcare #RPNQ0023). Dilute to 25 mg/mL in assay buffer.
Assay Buffer was prepared in house: Dulbecco's calcium and magnesium free phosphate buffered saline+10 mM MgCl2
Adenosine deaminase from calf intestine, 10 mg/2 mL (Roche #10 102 105 001).
A2A antagonist standard (9-chloro-1-(2-furanyl)-[1,2,4]triazolo[1,5-c]quinazolin-5-amine from Tocris Bioscience)
Make eight 1:3 serial dilutions in 100% DMSO from a 3 mM compound stock
Transfer 50 nL of compound into a 384-well OptiPlate (Perkin Elmer).
Typically, final concentrations of compound used in the assay ranged from 3000 nM to 0.152 nM.
Dilute a solution of the Tritiated compound to 1.25 nM in assay buffer. This a 2.5× solution. The final concentration in the assay is 0.5 nM. Calculate the concentration by counting two 5 μL aliquots.
Use *1 ug or preferrably 0.25 ug of membrane/well. Dilute membranes to 9.7 μg/ml in assay buffer. Treat with 20 ug/ml adenosine deaminase (ADA) for 15 minutes at room temperature to degrade endogenous adenosine.
Use 25 μg/well wheat germ agglutinin-coated yttrium silicate SPA beads.
Mix ADA-treated membranes and SPA beads together for 30 min prior to assay.
To the Perkin-Elmer Optiplate-384 containing the compound titration add 20 μL of 2.5× solution of the Tritiated compound and 30 μL of the membrane-bead mixture. Incubate for one hour at room temperature with agitation.
Include total binding (assay buffer+1% DMSO) and non-specific binding (CGS15943, 1 μM) wells.
Allow the beads to settle for one hour.
A curve fitting program (i.e., Prism, Activity Base, Chemcart) is used to determine the EC50. The Ki value is calculated using the Cheng-Prusoff equation. Ki=EC50/(1+(radioligand concentration/Kd)) Counting and Calculations
Counting and calculations were performed as described within the “A2A Activity Binding of Compounds of the Invention” section. Using the foregoing methods, the following results were obtained using compounds of the invention described herein. Each example compound tested is reported in the following format: Example number: A2A Ki (nM) selectivity.
In general terms: In a scintillation proximity assay essentially only radioactivity close to the scintillant gives light.
human A2A receptor, sequence (P29274 whole entry): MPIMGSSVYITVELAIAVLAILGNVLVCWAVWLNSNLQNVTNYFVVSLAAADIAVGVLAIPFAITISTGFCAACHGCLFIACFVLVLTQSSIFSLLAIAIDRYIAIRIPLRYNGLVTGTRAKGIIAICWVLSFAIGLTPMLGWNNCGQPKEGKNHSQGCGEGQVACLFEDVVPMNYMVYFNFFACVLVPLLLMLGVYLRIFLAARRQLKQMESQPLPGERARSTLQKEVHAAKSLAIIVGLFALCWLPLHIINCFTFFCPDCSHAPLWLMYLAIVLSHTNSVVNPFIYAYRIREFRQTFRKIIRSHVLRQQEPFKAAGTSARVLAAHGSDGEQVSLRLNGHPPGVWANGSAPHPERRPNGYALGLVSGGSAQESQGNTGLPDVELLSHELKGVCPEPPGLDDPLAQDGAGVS
Usually Ki stands for the dissociation constant of the complex between target and ligand, obtained from inhibition or displacement. Low readings indicate tighter binding, high ones weaker binding. `COc1cccc2c1nc(N)n1nc(C3CN(CC(F)F)CC(F)(F)C3)nc21` (single isomer, unassigned) [Example 34B, 2-(1-(2,2-difluoroethyl)-5,5-difluoropiperidin-3-yl)-7-methoxy-[1,2,4]triazolo[1,5-c]quinazolin-5-amine] returned a Ki of 4.7 nM.
`COc1cccc2c1nc(N)n1nc(C3CCCC(N)C3)nc21` (single isomer, unassigned) [Example 30C, 2-(3-aminocyclohexyl)-7-methoxy-[1,2,4]triazolo[1,5-c]quinazolin-5-amine] yielded a Ki of 115 nM.
The molecule `Nc1nc2cc(Cl)ccc2c2nc([C@@H]3CCCN(CC(F)F)C3)nn12` [Example 26, (R)-8-chloro-2-(1-(2,2-difluoroethyl)piperidin-3-yl)-[1,2,4]triazolo[1,5-c]quinazolin-5-amine] registered a Ki of 1.3 nM.
On the same count and under the same terms, next, `COc1cccc2c1nc(N)n1nc([C@@H]3CCCN(CCC(F)(F)C(F)(F)F)C3)nc21` [Example 11, (R)-7-methoxy-2-(1-(3,3,4,4,4-pentafluorobutyl)piperidin-3-yl)-[1,2,4]triazolo[1,5-c]quinazolin-5-amine]: 0.4 nM; `COc1cccc2c1nc(N)n1nc(C3CCCC(N)C3)nc21` (single isomer, unassigned) [Example 30A, 2-(3-aminocyclohexyl)-7-methoxy-[1,2,4]triazolo[1,5-c]quinazolin-5-amine]: 91 nM; `COCCN1CCC[C@@H](c2nc3c4cccc(OC)c4nc(N)n3n2)C1` [Example 6, (R)-7-methoxy-2-(1-(2-methoxyethyl)piperidin-3-yl)-[1,2,4]triazolo[1,5-c]quinazolin-5-amine]: 3.1 nM.
Consider `COc1cccc2c1nc(N)n1nc(C3CCC(F)(F)CN3)nc21` (single isomer, unassigned) [Example 58A, 2-(5,5-difluoropiperidin-2-yl)-7-methoxy-[1,2,4]triazolo[1,5-c]quinazolin-5-amine], for which affinity was put at a Ki of 2.4 nM.
For `COc1cccc2c1nc(N)n1nc(C3CCCC(N)C3)nc21` (single isomer, unassigned) [Example 30B, 2-(3-aminocyclohexyl)-7-methoxy-[1,2,4]triazolo[1,5-c]quinazolin-5-amine], affinity was put at a Ki of 44 nM.
Still for that read-out and setting: the value for `COc1cccc2c1nc(N)n1nc(C3CCCC(CCC(F)(F)F)C3)nc21` (single isomer, unassigned) [Example 29A, 7-methoxy-2-(3-(3,3,3-trifluoropropyl)cyclohexyl)-[1,2,4]triazolo[1,5-c]quinazolin-5-amine] was 16 nM; that for `COc1cccc2c1nc(N)n1nc([C@@H]3CCCN(C4CC4)C3)nc21` [Example 52, (R)-2-(1-cyclopropylpiperidin-3-yl)-7-methoxy-[1,2,4]triazolo[1,5-c]quinazolin-5-amine] was 1.2 nM; that for `COc1cccc2c1nc(N)n1nc([C@H]3CN(C4CCC(F)(F)CC4)CCO3)nc21` [Example 54, (R)-2-(4-(4,4-difluorocyclohexyl)morpholin-2-yl)-7-methoxy-[1,2,4]triazolo[15-c]quinazolin-5-amine] was 3 nM.
As for `COc1cccc2c1nc(N)n1nc(C3CC(F)(F)CCO3)nc21` (single isomer, unassigned) [Example 55A, 2-(4,4-difluorotetrahydro-2H-pyran-2-yl)-7-methoxy-[1,2,4]triazolo[1,5-c]quinazolin-5-amine], the Ki was 1.9 nM.
`COc1cccc2c1nc(N)n1nc(C3CCCC(N)C3)nc21` (single isomer, unassigned) [Example 30D, 2-(3-aminocyclohexyl)-7-methoxy-[1,2,4]triazolo[1,5-c]quinazolin-5-amine]: the Ki worked out at 660 nM.
The same measure, in the same setting: the value for `COc1cccc2c1nc(N)n1nc([C@@H]3CCCN(CCC4CC4)C3)nc21` [Example 14, (R)-2-(1-(2-cyclopropylethyl)piperidin-3-yl)-7-methoxy-[1,2,4]triazol[1,5-c]quinazolin-5-amine] was 6.9 nM.
Turning to `COc1cccc2c1nc(N)n1nc(C3CC4CCC3N(CC(F)(F)F)C4)nc21` (single isomer, unassigned) [Example 35D, 7-methoxy-2-(2-(2,2,2-trifluoroethyl)-2-azabicyclo[2.2.2]octan-6-yl)-[1,2,4]triazolo[1,5-c]quinazolin-5-amine], the affinity, expressed as Ki, was 9.9 nM.
Still for that read-out and setting: the value for `COc1cccc2c1nc(N)n1nc([C@@H]3CCCN(CCN(C)C)C3)nc21` [Example 4, (R)-2-(1-(2-(dimethylamino)ethyl)piperidin-3-yl)-7-methoxy-[1,2,4]triazolo[1,5-c]quinazolin-5-amine] was 5.4 nM; that for `COc1cccc2c1nc(N)n1nc([C@@H]3CCCN(CCC(F)(F)F)C3)nc21` [Example 1, (R)-7-methoxy-2-(1-(3,3,3-trifluoropropyl)piperidin-3-yl)-[1,2,4]triazolo[1,5-d]quinazolin-5-amine] was 0.6 nM.
Take `COc1cccc2c1nc(N)n1nc([C@@H]3CCCN(CCN4CCOCC4)C3)nc21` [Example 15, (R)-7-methoxy-2-(1-(2-morpholinoethyl)piperidin-3-yl)-[1,2,4]triazolo[1,5-c]quinazolin-5-amine]: the affinity, expressed as Ki, was 1.5 nM.
Regarding `COc1cccc2c1nc(N)n1nc([C@@H]3CCCN(CC4CC(F)(F)C4)C3)nc21` [Example 17, (R)-2-(1-((3,3-difluorocyclobutyl)methyl)piperidin-3-yl)-7-methoxy-[1,2,4]triazolo[1,5-c]quinazolin-5-amine], affinity was put at a Ki of 0.7 nM.
Take `COc1cccc2c1nc(N)n1nc(C3CCCC(CCC(F)(F)F)C3)nc21` (single isomer, unassigned) [Example 29B, 7-methoxy-2-(3-(3,3,3-trifluoropropyl)cyclohexyl)-[1,2,4]triazolo[1,5-c]quinazolin-5-amine]: the affinity corresponds to a Ki of 1.7 nM.

Staying with this experiment, now noted: values marked ^: 1 μg of membrane/well (HEK293 cells expressing the human A2a receptor); 0.5 nM tritiated radioligand; Cheng-Prusoff.
`COc1cccc2c1nc(N)n1nc([C@@H]3CCCN(c4ncc(C)s4)C3)nc21` [Example 22, (R)-7-methoxy-2-(1-(5-methylthiazol-2-yl)piperidin-3-yl)-[1,2,4]triazolo[1,5-c]quinazolin-5-amine] came in with a Ki of 0.8 nM.
As for `COc1cccc2c1nc(N)n1nc([C@@H]3CCCN(C(=O)c4cccs4)C3)nc21` [Example 39, 7-methoxy-2-((3R)-1-(thiophen-2-ylcarbonyl)piperidin-3-yl)[1,2,4]triazolo[1,5-c]quinazolin-5-amine], the Ki turned out to be 2.7 nM.
As to `COc1cccc2c1nc(N)n1nc([C@@H]3CCCN(c4nnc(C)s4)C3)nc21` [Example 19, (R)-7-methoxy-2-(1-(5-methyl-1,3,4-thiadiazol-2-yl)piperidin-3-yl)-[1,2,4]triazolo[1,5-c]quinazolin-5-amine], the Ki came out at 2 nM.
In the case of `COc1cccc2c1nc(N)n1nc(C3CCN(c4cccc(F)c4)C3)nc21` (racemic) [Example 51, (±)-2-(1-(3-fluorophenyl)pyrrolidin-3-yl)-7-methoxy[1,2,4]triazolo[1,5-c]quinazolin-5-amine], the Ki was 1.4 nM. The Ki values of the last two molecules are within 1.5-fold of each other.
In turn, `COc1cccc2c1nc(N)n1nc([C@@H]3CCCN(Cc4cnc(C)s4)C3)nc21` [Example 48, 7-methoxy-2-((3R)-1-((2-methyl-1,3-thiazol-5-yl)methyl)piperidin-3-yl)[1,2,4]triazolo[1,5-c]quinazolin-5-amine] yielded a Ki of 2.1 nM.
In the case of `COc1cccc2c1nc(N)n1nc([C@@H]3CCCN(CCCC(F)(F)F)C3)nc21` [Example 16, (R)-7-methoxy-2-(1-(4,4,4-trifluorobutyl)piperidin-3-yl)-[1,2,4]triazolo[1,5-c]quinazolin-5-amine], the Ki worked out at 7.6 nM.
`COc1cccc2c1nc(N)n1nc(C3CCCN(c4ccccc4)C3)nc21` (single isomer, unassigned) [Example 50B, 7-methoxy-2-(1-phenylpiperidin-3-yl)-[1,2,4]triazolo[1,5-c]quinazolin-5-amine] yielded a Ki of 34 nM.

For the origin of these results see patent US10822338B2, “Substituted aminoquinazoline compounds as A2A antagonist” (Merck Sharp & Dohme Corp., priority 2015, dated 2020).
